Laboratory results from PubChem BioAssay (NCI).
Values joined by “and” are separate entries in the source; they are usually repeats but may differ in a detail not shown here. Equal entries are not always repeated.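 Where inhibition never reached the appropriate level, the endpoint shown equals the highest concentration tested. Otherwise, values were interpolated linearly from a five-concentration, 48-hour dose response in 96-well plates. GI50 = concentration required for 50% inhibition of growth. The concentration for full growth arrest is given as TGI.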

Legend:
Assay in all cases: NCI-60 cell line screen, 48 h
[1] = test system: MDA-N
[2] = test system: DLD-1 colon
[3] = test system: DMS 273 small cell lung
[4] = test system: KM20L2 colon
[5] = test system: LXFL 529 NSCLC
[6] = test system: M19-MEL melanoma
[7] = test system: RXF-631 renal
[8] = test system: SNB-78 CNS
[9] = test system: XF 498 CNS

| Compound | TGI [1] | GI50 [2] [µM] | TGI [2] [µM] | GI50 [3] [µM] | TGI [3] | TGI [4] [µM] | GI50 [5] [µM] | TGI [5] [µM] | GI50 [6] [µM] | TGI [6] [µM] | GI50 [7] [µM] | TGI [7] | GI50 [8] | TGI [8] | GI50 [9] | TGI [9] | GI50 [1] [µM] | GI50 [4] [µM] |
| --- | --- | --- | --- | --- | --- | --- | --- | --- | --- | --- | --- | --- | --- | --- | --- | --- | --- | --- |
| Cc1ccc2c(c1)S(=O)(=O)c1ccc3ccccc3c1N2 | > 100 µM | – | – | – | – | – | – | – | – | – | – | – | – | – | – | – | – | – |
| COc1ccc(C2C(C)C(=O)C(C)C(c3ccc(OC)cc3)N2N=O)cc1 (stereo unspecified) | 381 µM | > 750 | > 1000 | 609 | 750 µM and > 1000 µM | > 1000 | > 1000 | > 1000 | > 1000 | > 1000 | 270 | 750 µM and 281 µM | > 46.2 µM and 96.1 µM | > 78.2 µM and 750 µM and > 902 µM | 27 µM and 39.1 µM | 69.7 µM and 160 µM and > 460 µM | – | – |
| CC1(c2ccccc2)CC(c2cccc([N+](=O)[O-])c2)=NO1 (stereo unspecified) | – | – | > 100 | – | > 100 µM | – | – | > 100 | – | > 100 | – | > 100 µM | – | > 100 µM | – | – | – | – |
| Cc1ccc(S(=O)OCC23CC4CC(CC(C4)C2)C3)cc1 (stereo unspecified) | – | – | > 100 | – | > 100 µM | > 100 | – | > 100 | – | > 100 | – | – | – | > 100 µM | – | > 100 µM | – | – |
| CC(=O)Nc1ccc(COC(O)CN2CCCCC2)cc1[N+](=O)[O-] (stereo unspecified) | > 100 µM | – | – | – | – | – | – | – | – | – | – | – | – | – | – | – | – | – |
| O=C1CCSC2=C1SCc1sccc12 | – | – | > 100 | – | – | > 100 | – | > 100 | – | > 100 | – | – | – | > 100 µM | – | > 100 µM | – | – |
| Cc1c(O)c2c(c(O)c1Br)C(=O)C=CC2=O | 0.615 µM and 2.08 µM | – | – | – | – | – | – | – | – | – | – | – | – | – | – | – | 0.63 | – |
| OCCN1CCN2C=C(C3CCCC4N(CCO)CCN34)CCC21 (stereo unspecified) | – | – | > 100 | – | > 100 µM | > 100 | – | > 100 | – | > 100 | – | – | – | > 100 µM | – | > 100 µM | – | – |
| COc1ccc(C(=O)C(c2ccc(OCc3ccccc3)cc2)c2ccc(OCc3ccccc3)cc2)cc1 | – | – | > 100 | – | > 100 µM | > 100 | – | – | – | > 100 | – | > 100 µM | – | > 100 µM | – | > 100 µM | – | – |
| CCN(CC)Cc1c(/C=C\c2cc(OC)c(OC)c(OC)c2)ccc(OC)c1O | 1.59 µM | – | > 100 | – | > 100 µM | 11.9 | – | > 100 | – | > 100 | – | – | – | > 100 µM | – | 21.5 µM | – | – |
| NNC(=O)N/N=C1\C(=O)N(c2ccc(Cl)c(Cl)c2)C(=O)C(=O)C1c1nc2ccccc2s1 (stereo unspecified) | – | – | > 100 | – | > 100 µM | > 100 | – | > 100 | – | – | – | – | – | > 100 µM | – | > 100 µM | – | – |
| CN(Cc1cc(Cl)cc(Cl)c1O)Cc1c(O)ccc2ccccc12 | 66.1 µM | – | – | – | – | – | – | – | – | – | – | – | – | – | – | – | – | – |
| Cc1ccc(NC(=O)/C(Cl)=C(/Cl)C(=O)O)cc1 | – | – | 33.5 | – | 41.7 µM | 40.3 | – | 26.6 | – | 29.5 | – | 49.8 µM | – | 53.4 µM | – | – | – | – |
| CC(=O)[CH-]C(=O)c1ccccc1.CC(=O)[CH-]C(=O)c1ccccc1.C[C@]12CCC(=O)C=C1CC[C@@H]1C2CC[C@@]2(C)C1CC[C@@H]2[O-].C[C@]12CCC(=O)C=C1CC[C@@H]1C2CC[C@@]2(C)C1CC[C@@H]2[O-].Cl.[Ti+4] (stereo partly specified) | – | 18.3 | 45.9 | 21.2 | 69.5 µM | 34.1 | 24.3 | 87.3 | 23.7 | 96.9 | – | – | – | – | – | – | – | 13.1 |
| CC(C)NC(=O)CCN(C(=O)O)S(=O)(=O)c1ccc(NC(=O)c2ccccc2)cc1 | – | – | > 72.6 | – | > 56.7 µM | > 100 | – | > 100 | – | > 89.2 | – | > 100 µM | – | > 100 µM | – | > 100 µM | – | – |
| N/N=c1\c2ccccc2c2cc3c(cc12)/c(=N/N)c1ccccc13 | – | – | > 100 | – | > 100 µM | > 100 | – | > 100 | – | > 100 | – | > 100 µM | – | > 100 µM | – | – | – | – |
| CC#CC1C2CCCC1(CSc1ccccc1)NC(=O)O2 (stereo unspecified) | – | – | > 100 | – | > 100 µM | > 100 | – | > 100 | – | > 100 | – | > 100 µM | – | > 100 µM | – | > 100 µM | – | – |
| CC(=O)OC12COC1CC(O)C1(C)C(=O)C(O)C3=C(C)C(O)CC(O)(C(OC(=O)c4ccccc4)C21)C3(C)C (stereo unspecified) | – | – | – | – | 17.6 µM | 5.42 | – | – | – | > 100 | – | – | – | > 100 µM | – | > 100 µM | – | – |
| Clc1ccc(-c2c(C3=NCCCN3)nnn2-c2ccccc2)cc1 | – | – | > 100 | – | > 100 µM | > 100 | – | > 100 | – | > 100 | – | > 100 µM | – | > 100 µM | – | > 100 µM | – | – |
